In US7423054B2, “Therapeutic pyrazolo[3,4-b]pyridines and indazoles” (Warner Lambert Company LLC, priority 2004, dated 2008):
Counter-ions that a name gives are not always drawn.

Legend:
[1] = target: T1, human serotonin transporter (hSERT) (Homo sapiens, UniProt P31645); assay: hSERT receptor binding ([125I]-RTI-55 displacement, membranes of transfected HEK-293 cells); settings: HEK-293 membranes, Ki from IC50 by Cheng-Prusoff, read-out: SERT Ki
T1 construct: expressed in transfected cells; host or cells: HEK-293 cells (membrane preparation)
T1 sequence (P31645 whole entry): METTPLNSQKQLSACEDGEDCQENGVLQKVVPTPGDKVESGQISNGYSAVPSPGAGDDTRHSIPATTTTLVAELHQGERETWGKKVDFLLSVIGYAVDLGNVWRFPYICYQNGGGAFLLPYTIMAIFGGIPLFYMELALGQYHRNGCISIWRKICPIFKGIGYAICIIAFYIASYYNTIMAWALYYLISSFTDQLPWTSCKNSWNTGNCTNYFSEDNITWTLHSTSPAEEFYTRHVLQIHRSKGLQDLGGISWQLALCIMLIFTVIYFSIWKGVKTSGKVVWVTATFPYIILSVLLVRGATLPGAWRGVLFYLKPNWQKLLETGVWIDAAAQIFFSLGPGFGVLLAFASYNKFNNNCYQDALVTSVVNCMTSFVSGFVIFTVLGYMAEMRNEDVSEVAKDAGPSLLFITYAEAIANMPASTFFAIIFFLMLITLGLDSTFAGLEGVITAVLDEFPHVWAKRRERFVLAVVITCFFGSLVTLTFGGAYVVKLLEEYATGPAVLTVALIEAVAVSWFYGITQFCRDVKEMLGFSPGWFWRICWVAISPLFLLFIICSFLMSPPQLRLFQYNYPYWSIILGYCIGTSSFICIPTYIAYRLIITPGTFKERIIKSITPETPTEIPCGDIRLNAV
Procedure: (§1) The ability of the compounds of the present invention to inhibit a norepinephrine transporter and/or a serotonin transporter can be determined using conventional radioligand receptor transport assays. The receptors can be heterologously expressed in cell lines and experiments conducted in membrane preparations from the cell lines that express a norepinephrine transporter and/or a serotonin transporter.
(§2) Cell pastes of HEK-293 cells transfected with a human serotonin transporter cDNA were prepared. The cell pastes were resuspended in 400 to 700 ml of Krebs-HEPES assay buffer (25 mM HEPES, 122 mM NaCl, 3 mM KCl, 1.2 mM MgSO4, 1.3 mM CaCl2, and 11 mM glucose, pH 7.4) with a Polytron homogenizer at Setting 7 for 30 seconds. Aliquots of membranes (˜2.5 mg/ml protein) were stored in liquid nitrogen until used.
Assays were set up in FlashPlates pre-coated with 0.1% PEI in a total volume of 250 μl containing: test compound (10^−5M to 10^−12M), cell membranes, and 50 pM [^125I]-RTI-55 (Perkin Elmer, NEX-272; specific activity 2200 Ci/mmol). The reaction was incubated and gently agitated for 90 minutes at room temperature, and terminated by removal of assay volume. Plates were covered, and bound [^125I]-RTI-55 was determined using a Wallac Trilux Beta Plate Counter. Test compounds were run in duplicate, and specific binding was defined as the difference between binding in the presence and absence of 10 μM citalopram.
Excel and GraphPad Prism software were used for data calculation and analysis. IC50 values were converted to Ki values using the Cheng-Prusoff equation. The Ki values (nM) for the hSERT are reported below in Table 11: […]

[2] = target: T2, human norepinephrine transporter (hNET) (Homo sapiens, UniProt P23975); assay: hNET receptor binding ([125I]-RTI-55 displacement, membranes of transfected HEK-293 cells); settings: HEK-293 membranes, Ki from IC50 by Cheng-Prusoff, read-out: NET Ki
T2 construct: expressed in transfected cells; host or cells: HEK-293 cells (membrane preparation)
T2 sequence (P23975 whole entry): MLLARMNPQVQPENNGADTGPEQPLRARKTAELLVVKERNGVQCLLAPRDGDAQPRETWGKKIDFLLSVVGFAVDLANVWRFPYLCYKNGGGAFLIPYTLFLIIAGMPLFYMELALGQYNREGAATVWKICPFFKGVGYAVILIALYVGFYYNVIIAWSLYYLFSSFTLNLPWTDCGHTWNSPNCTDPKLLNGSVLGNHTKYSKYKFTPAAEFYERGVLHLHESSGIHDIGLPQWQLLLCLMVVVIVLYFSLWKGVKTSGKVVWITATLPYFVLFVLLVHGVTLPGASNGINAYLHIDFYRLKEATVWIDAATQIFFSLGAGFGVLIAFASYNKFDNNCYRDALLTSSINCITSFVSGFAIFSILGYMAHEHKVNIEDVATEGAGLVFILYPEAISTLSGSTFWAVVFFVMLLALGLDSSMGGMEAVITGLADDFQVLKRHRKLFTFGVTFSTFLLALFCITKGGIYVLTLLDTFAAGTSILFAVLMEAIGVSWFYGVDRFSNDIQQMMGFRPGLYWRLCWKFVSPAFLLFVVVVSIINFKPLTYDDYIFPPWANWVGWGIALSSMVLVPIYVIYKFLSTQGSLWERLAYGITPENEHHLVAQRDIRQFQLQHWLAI
From the text: as §1
as §2, with “norepinephrine” for “serotonin”, “setting” for “Setting”, “(5” for “(˜2.5”
The binding assay was set up in Beckman deep-well polypropylene plates with a total volume of 250 μl containing: test compound (10^−5M to 10^−12M), cell membranes, and 50 pM [^125I]-RTI-55 (Perkin Elmer, NEX-272; specific activity 2200 Ci/mmol). The reaction was incubated by gentle agitation for 90 minutes at room temperature and was terminated by filtration through Whatman GF/C filter plates using a Brandel 96-well plate harvester. Scintillation fluid (100 μl) was added to each well, and bound [^125I]-RTI-55 was determined using a Wallac Trilux Beta Plate Counter. Test compounds were run in duplicate, and specific binding was defined as the difference between binding in the presence and absence of 10 μM desipramine.
Excel and GraphPad Prism software were used for data calculation and analysis. IC50 values were converted to Ki values using the Cheng-Prusoff equation. The Ki values (nM) for the hNET are reported below in Table 11.

Compound	Ki [1] [µM]	Ki [2] [µM]
Fc1ccc(F)c(-n2nc(OC3CCNCC3)c3cc(F)ccc32)c1 [Example 39, 1-(2,5-Difluoro-phenyl)-5-fluoro-3-(piperidin-4-yloxy)-1H-indazole hydrochloride]	0.0344	0.00957
Clc1ccc(-n2nc(OC3CCNCC3)c3ccccc32)cc1 [Example 41, 1-(4-Chloro-phenyl)-3-(piperidin-4-yloxy)-1H-indazole hydrochloride]	0.0797	0.299
c1ccc(-n2nc(OC[C@H]3CCCNC3)c3ccccc32)nc1 [Example 44, (S)-(−)-3-(Piperidin-3-ylmethoxy)-1-pyridin-2-yl-1H-indazole maleate]	0.365	0.1
CC1(COc2nn(-c3ccccc3F)c3ccccc23)CCCNC1 (stereo not shown) [Example 53, 1-(2-Fluoro-phenyl)-3-(3-methyl-piperidin-3-ylmethoxy)-1H-indazole hydrogen chloride]	0.146	0.0541
Fc1ccc(F)c(-n2nc(OC3CCNCC3)c3cc(Cl)ccc32)c1 [Example 58, 5-Chloro-1-(2,5-difluoro-phenyl)-3-(piperidin-4-yloxy)-1H-indazole hydrochloride]	0.134	0.056
Cc1cccc2c(OC3CCNCC3)nn(-c3ccccc3)c12 [Example 59, 7-Methyl-1-phenyl-3-(piperidin-4-yloxy)-1H-indazole hydrochloride]	0.0327	0.0691
COc1cccc2c(OC3CCNCC3)nn(-c3ccccc3)c12 [Example 60, 7-Methoxy-1-phenyl-3-(piperidin-4-yloxy)-1H-indazole hydrochloride]	0.0767	0.221
Clc1cccc2c(OC3CCNCC3)nn(-c3ccccc3)c12 [Example 61, 7-Chloro-1-phenyl-3-(piperidin-4-yloxy)-1H-indazole hydrochloride]	0.0217	0.0204
Cc1cccc2c1c(OC1CCNCC1)nn2-c1ccccc1 [Example 62, 4-Methyl-1-phenyl-3-(piperidin-4-yloxy)-1H-indazole hydrochloride]	0.314	0.495
Clc1ccc2c(OC3CCNCC3)nn(-c3ccccc3)c2c1 [Example 64, 6-Chloro-1-phenyl-3-(piperidin-4-yloxy)-1H-indazole hydrochloride]	0.272	0.512
Fc1ccccc1-n1nc(OC2CCNCC2)c2cccc(C(F)(F)F)c21 [Example 65, 1-(2-fluorophenyl)-3-(piperidin-4-yloxy)-7-(trifluoromethyl)-1H-indazole hydrochloride]	0.0812	4.33
Cc1ccc2c(OC3CCNCC3)nn(-c3ccccc3)c2c1 [Example 71, 6-Methyl-1-phenyl-3-(piperidin-4-yloxy)-1H-indazole hydrochloride]	0.0205	0.0955
Cc1ccc2c(OC3CCNCC3)nn(-c3ccccc3F)c2c1 [Example 72, 1-(2-Fluoro-phenyl)-6-methyl-3-(piperidin-4-yloxy)-1H-indazole hydrochloride]	0.00976	0.0274
Fc1cc2c(OC3CCNCC3)nn(-c3ccccc3F)c2cc1F [Example 75, 5,6-Difluoro-1-(2-fluoro-phenyl)-3-(piperidin-4-yloxy)-1H-indazole hydrochloride]	0.0398	0.0364
Fc1cccc(-n2nc(OC3CCNCC3)c3cc(F)ccc32)c1 [Example 77, 5-Fluoro-1-(3-fluoro-phenyl)-3-(piperidin-4-yloxy)-1H-indazole hydrochloride]	0.0495	0.0248
Fc1ccc(-n2nc(OC3CCNCC3)c3cc(F)ccc32)cc1 [Example 79, 5-Fluoro-1-(4-fluoro-phenyl)-3-(piperidin-4-yloxy)-1H-indazole hydrochloride]	0.0237	0.0328
Fc1cccc(-n2nc(OC3CCNCC3)c3c(F)cccc32)c1 [Example 81, 4-Fluoro-1(3-fluoro-phenyl)-3-(piperidin-4-yloxy)-1H-indazole hydrochloride]	0.449	0.0498
Fc1cccc(-n2nc(OC[C@H]3CCCNC3)c3c(F)cccc32)c1 [Example 82, (S)-4-Fluoro-1-(3-fluoro-phenyl)-3-(piperidin-3-ylmethoxy)-1H-indazole hydrochloride]	0.635	0.0232

Next, values leading:

Ki [1] [µM]	Ki [2] [µM]	Compound
0.199	0.00609	Fc1ccc(F)c(-n2nc(OC[C@H]3CCCNC3)c3ccccc32)c1 [Example 38, (S)-1-(2,5-Difluoro-phenyl)-3-(piperidin-3-ylmethoxy)-1H-indazole hydrochloride]
0.0307	0.00502	Fc1ccc(F)c(-n2nc(OC[C@@H]3CCNC3)c3cc(F)ccc32)c1 [Example 40, (R)-1-(2,5-Difluoro-phenyl)-5-fluoro-3-(pyrrolidin-3-ylmethoxy)-1H-indazole hydrochloride]
0.413	0.0057	Fc1ccc2c(c1)c(OC[C@@H]1CNCCO1)nn2-c1ccccc1F [Example 46, (S)-(+)-5-Fluoro-1-(2-fluorophenyl)-3-(morpholin-2-ylmethoxy)-1H-indazole maleate]
0.0205	0.0985	Fc1ccc(-n2nc(OC[C@H]3CCCNC3)c3cc(F)ccc32)c(F)c1 [Example 49, (S)-(−)-1-(2,4-Difluorophenyl)-5-fluoro-3-(piperidin-3-ylmethoxy)-1H-indazole hydrochloride]
1.14	0.0052	Fc1ccc2c(c1)c(OC[C@@H]1CNCCO1)nn2-c1c(F)cccc1F [Example 50, (S)-1-(2,6-Difluoro-phenyl)-5-fluoro-3-(morpholin-2-ylmethoxy)-1H-indazole hydrochloride]
0.0454	0.0357	CC1(COc2nn(-c3ccccc3F)c3ccc(F)cc23)CCCNC1 (stereo not shown) [Example 52]
0.0285	0.274	CC1(COc2nn(-c3ccccc3F)c3ccc(F)cc23)CCNCC1 [Example 54, 5-Fluoro-1-(2-fluoro-phenyl)-3-(4-methyl-piperdin-4-ylmethoxy)-1H-indazole hydrogen chloride]
0.126	0.0712	Fc1ccc2c(c1)c(OC[C@@H]1CCCNC1)nn2-c1ccccc1F [Example 55, (R)-5-Fluoro-1-(2-fluoro-phenyl)-3-(piperidin-3-ylmethoxy)-1H-indazole maleate]
0.0194	0.0395	Fc1ccc2c(OC3CCNCC3)nn(-c3ccccc3F)c2c1 [Example 63, 6-Fluoro-1-(2-fluoro-phenyl)-3-(piperidin-4-yloxy)-1H-indazole hydrochloride]
0.304	0.0293	Fc1ccccc1-n1nc(OCC2CCCNC2)c2cc(Cl)ccc21 (stereo not shown) [Example 73, 5-Chloro-1-(2-fluoro-phenyl)-3-(piperidin-3-ylmethoxy)-1H-indazole hydrochloride]
0.792	0.0605	Cc1ccc2c(OCC3CCCNC3)nn(-c3ccccc3F)c2c1 (stereo not shown) [Example 74, 1-(2-Fluoro-phenyl)-6-methyl-3-(piperidin-3-ylmethoxy)-1H-indazole hydrochloride]
0.158	0.0404	Fc1cc2c(OCC3CCCNC3)nn(-c3ccccc3F)c2cc1F (stereo not shown) [Example 76, 5,6-Difluoro-1-(2-fluoro-phenyl)-3-(piperidin-3-ylmethoxy)-1H-indazole hydrochloride]
0.0399	0.0102	Fc1cccc(-n2nc(OC[C@H]3CCCNC3)c3cc(F)ccc32)c1 [Example 78, (S)-5-Fluoro-1-(3-fluoro-phenyl)-3-(piperidin-3-ylmethoxy)-1H-indazole hydrochloride]
0.0239	0.015	Fc1ccc(-n2nc(OC[C@H]3CCCNC3)c3cc(F)ccc32)cc1 [Example 80, (S)-5-Fluoro-1-(4-fluoro-phenyl)-3-(piperidin-3-ylmethoxy)-1H-indazole hydrochloride]
